Patent US20230200216A1, “ORGANIC LIGHT-EMITTING DEVICE” (CANON KABUSHIKI KAISHA, priority 2021, published 2023)

Assay: Sublimability: decomposition temperature (TG/DTA, 5% mass loss) minus sublimation temperature
Type: physicochemical
Settings: 5% mass reduction, sublimation: Ar flow, vacuum 1×10^−1 Pa
Description: Table 4 presents the results of comparisons in sublimability between exemplified compound RD21 serving as the first guest and compound 1 and between exemplary compound RD30 serving as the first guest and compound 2. As an evaluation of sublimability, comparisons are made of the temperature difference between the sublimation temperature and the decomposition temperature (ΔT=decomposition temperature−sublimation temperature). A larger temperature difference can be said to indicate higher sublimability. With regard to the decomposition temperature, TG/DTA measurement was performed, and the temperature at which a reduction in mass reached 5% was defined as the decomposition temperature. With regard to the sublimation temperature, the sublimation purification was performed by slowly increasing the temperature while allowing Ar to flow at a degree of vacuum of 1×10^−1 Pa, and the temperature at which a sufficient sublimation rate was reached was defined as the sublimation temperature.

SMILES	ΔT = decomposition temperature − sublimation temperature [°C]
CC(C)(C)c1cc2cc(C(C)(C)C)cc3c4ccc5c6cc7c(-c8ccccc8)c8c9ccc%10c%11cc(C(C)(C)C)cc%12cc(C(C)(C)C)cc(c%13ccc(c8c(-c8ccccc8)c7cc6c6ccc(c(c1)c23)c4c65)c9c%13%10)c%12%11 [Compound 1]	40
c1ccc(-c2ccc(-c3ccccc3)c3c2-c2ccc4c5ccc6c7c(ccc(c8ccc-3c2c48)c75)-c2c(-c3ccc4ccccc4c3)ccc(-c3ccc4ccccc4c3)c2-6)cc1 [Compound 2]	60
c1ccc(-c2ccccc2-c2c3cc4c(cc3c(-c3ccccc3)c3c5ccc6c7cccc8cccc(c9ccc(c23)c5c69)c87)c2ccc3c5cccc6cccc(c7ccc4c2c37)c65)cc1 [Exemplified compound RD21]	100
c1ccc(-c2ccccc2-c2ccc(-c3ccccc3-c3ccccc3)c3c2-c2ccc4c5ccc6c7c(ccc(c8ccc-3c2c48)c75)-c2c(-c3ccccc3)ccc(-c3ccccc3)c2-6)cc1 [Exemplified compound RD30]	130
